Laboratory results: article PMC10618370, “Mur ligase F as a new target for the flavonoids quercitrin, myricetin, and (–)-epicatechin” (Journal of Computer-Aided Molecular Design, 2023)
Entries after “also recorded” stand apart in the source; their conditions may differ.

Columns and labels:
E. coli MurD = E. coli MurD (Escherichia coli, UniProt P14900); experiment: MurD inhibition assay (Malachite green); format: biochemical; settings: 0.25 h; residual activity at 100 µM compound; mean ± SD of three independent experiments; read-out: RA (%) @ 100 µM MurD
Sequence of E. coli MurD (P14900 whole entry): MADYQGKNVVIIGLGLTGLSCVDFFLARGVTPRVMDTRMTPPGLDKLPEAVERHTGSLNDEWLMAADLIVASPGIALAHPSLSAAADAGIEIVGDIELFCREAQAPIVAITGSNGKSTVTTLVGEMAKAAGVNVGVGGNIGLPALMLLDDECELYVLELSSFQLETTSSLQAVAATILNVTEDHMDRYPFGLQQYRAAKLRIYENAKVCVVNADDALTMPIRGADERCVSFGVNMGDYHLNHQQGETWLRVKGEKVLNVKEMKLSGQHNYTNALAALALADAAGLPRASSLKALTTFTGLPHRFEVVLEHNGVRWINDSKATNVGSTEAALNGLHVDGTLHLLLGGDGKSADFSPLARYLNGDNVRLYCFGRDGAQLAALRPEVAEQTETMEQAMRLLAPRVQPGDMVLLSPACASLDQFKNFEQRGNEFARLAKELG
Description: (§1) Inhibition of the Mur ligases was determined using the Malachite green assay, with slight modifications. […] In all cases, the final concentration of DMSO was 5% (v/v).
(§2) After incubation for 15 min at 37 °C, the enzyme reaction was terminated by the addition of 100 µM Biomol green reagent®, and the absorbance was measured at 650 nm after 5 min. Experiments to determine the RA run in triplicate. Residual activities were calculated with respect to control assays without the tested compounds, but with the 5% DMSO carrier. The IC50 values were determined by measuring the residual activities at seven different compound concentrations, and they represent the concentration of the compound at which the residual activity was 50%. IC50 values were obtained by plotting the residual enzyme activities against the applied inhibitor concentrations, fitting the experimental data to the 4-parameter Hill equation: Y=Bottom-Top-Bottom/1+10^logIC50-X×HillSlope , where X is the logarithm of the inhibitor concentration, and Y is the residual activity. The IC50 values were determined in three independent experiments. GraphPad Prism 8.2.0 (GraphPad Software, San Diego, CA, USA) was used for the fitting procedure.
(§3) The assay detects the phosphate formed in each enzyme reaction. To avoid any possibility of the compounds inhibiting the enzymes due to aggregation, a detergent (0.005% Triton-X114) was added to the test system.

[1] = Solubility under the Mur ligase assay conditions; format: physicochemical
E. coli MurE = E. coli MurE (Escherichia coli, UniProt P22188); experiment: MurE inhibition assay (Malachite green); format: biochemical
Sequence of E. coli MurE (P22188 whole entry): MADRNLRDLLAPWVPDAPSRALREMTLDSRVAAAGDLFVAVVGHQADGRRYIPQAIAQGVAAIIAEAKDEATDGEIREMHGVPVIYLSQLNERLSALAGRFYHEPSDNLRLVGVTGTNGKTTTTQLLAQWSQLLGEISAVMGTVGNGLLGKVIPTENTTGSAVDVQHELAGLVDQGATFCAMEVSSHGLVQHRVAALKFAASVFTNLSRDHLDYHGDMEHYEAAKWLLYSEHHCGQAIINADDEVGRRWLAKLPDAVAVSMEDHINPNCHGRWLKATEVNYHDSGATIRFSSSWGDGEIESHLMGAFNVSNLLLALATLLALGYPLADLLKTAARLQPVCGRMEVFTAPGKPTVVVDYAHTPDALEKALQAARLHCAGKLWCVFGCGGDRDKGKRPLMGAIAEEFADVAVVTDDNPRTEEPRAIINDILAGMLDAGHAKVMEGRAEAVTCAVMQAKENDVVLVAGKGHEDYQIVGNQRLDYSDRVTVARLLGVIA
Description: as §1, §2, §3

E. coli MurC = E. coli MurC (Escherichia coli, UniProt P17952); experiment: MurC inhibition assay (Malachite green); format: biochemical; settings: 0.25 h; residual activity at 100 µM compound; mean ± SD of three independent experiments; read-out: RA (%) @ 100 µM MurC
Sequence of E. coli MurC (P17952 whole entry): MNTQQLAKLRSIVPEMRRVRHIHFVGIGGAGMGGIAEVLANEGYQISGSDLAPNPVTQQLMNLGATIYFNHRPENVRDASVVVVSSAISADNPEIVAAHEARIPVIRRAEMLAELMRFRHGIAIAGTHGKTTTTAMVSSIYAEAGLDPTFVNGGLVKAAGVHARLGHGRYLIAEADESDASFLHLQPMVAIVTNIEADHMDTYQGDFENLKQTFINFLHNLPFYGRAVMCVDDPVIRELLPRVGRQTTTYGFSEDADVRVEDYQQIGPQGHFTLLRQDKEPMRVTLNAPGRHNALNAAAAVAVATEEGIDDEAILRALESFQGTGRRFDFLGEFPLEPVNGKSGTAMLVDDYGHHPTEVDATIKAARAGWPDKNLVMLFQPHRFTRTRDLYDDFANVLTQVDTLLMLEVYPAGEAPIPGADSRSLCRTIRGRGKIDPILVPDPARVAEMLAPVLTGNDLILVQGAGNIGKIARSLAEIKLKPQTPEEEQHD
Description: as §1, §2, §3

E. coli MurF = E. coli MurF (Escherichia coli, UniProt P11880); experiment: MurF inhibition assay (Malachite green); format: biochemical; settings: seven compound concentrations, 4-parameter Hill fit; three independent experiments
Sequence of E. coli MurF (P11880 whole entry): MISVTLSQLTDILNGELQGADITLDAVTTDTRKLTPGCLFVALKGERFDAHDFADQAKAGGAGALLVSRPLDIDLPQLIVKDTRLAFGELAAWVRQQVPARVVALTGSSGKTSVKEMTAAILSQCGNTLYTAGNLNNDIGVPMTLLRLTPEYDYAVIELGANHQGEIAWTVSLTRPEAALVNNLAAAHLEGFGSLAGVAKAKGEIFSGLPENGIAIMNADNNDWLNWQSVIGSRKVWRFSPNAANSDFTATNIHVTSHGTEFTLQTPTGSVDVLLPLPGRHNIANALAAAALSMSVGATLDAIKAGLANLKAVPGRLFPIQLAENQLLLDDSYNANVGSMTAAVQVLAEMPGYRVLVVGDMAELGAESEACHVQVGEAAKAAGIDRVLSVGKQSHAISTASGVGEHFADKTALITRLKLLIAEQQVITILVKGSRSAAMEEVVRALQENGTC
Description: as §1, §2, §3

S. aureus (ATCC 29,213) = experiment: Antibacterial assay, broth microdilution MIC; format: cell-based; settings: broth microdilution; for MIC: Staphylococcus aureus, ATCC29, 20 h at 35 °C, read-out: MIC S.aureus
Description: (§4) Antimicrobial testing was performed by the broth microdilution method in 96-well plates following the Clinical and Laboratory Standards Institute guidelines and European Committee on Antimicrobial Susceptibility Testing recommendations (Clinical and Laboratory Standards Institute). Bacterial suspensions equivalent to 0.5 McFarland turbidity standard were diluted with cation-adjusted Mueller–Hinton broth with TES buffering (ThermoFisher Scientific), for a final inoculum of 10^5 CFU/ mL. Compounds dissolved in DMSO and the inoculum were mixed and incubated for 20 h at 35 °C. […] The MICs were determined against two reference bacterial strains, S. aureus (ATCC 29,213) and E. coli (ATCC 25,922). Tetracycline was used as the positive control on every assay plate, with MICs of 0.5 and 1 µg/mL for S. aureus and E. coli, respectively. All MICs were determined in three independent experiments.

E. coli (ATCC 25,922) = experiment: Antibacterial assay, broth microdilution MIC; format: cell-based; settings: broth microdilution; for MIC: Escherichia coli, ATCC25, 20 h at 35 °C, read-out: MIC E.coli
Description: as §4

MurF from E. coli = MurF from E. coli (Escherichia coli, UniProt P11880); experiment: Steady-state kinetic analysis of compound 21; format: biochemical
Sequence of MurF from E. coli (P11880 whole entry): as above
Description: For compound 21, Ki values were determined against MurF from E. coli. Ki determinations were performed under similar conditions to those described for the inhibition assay, where the different concentrations of one substrate and a fixed concentration of the other two were used. First, the concentration of UM3DAP was varied (25, 50, 100, 200 µM) at fixed ATP (500 µM) and D-Ala-D-Ala (600 µM)), then the concentration of D-Ala-D-Ala was varied (50, 100, 200, 400, 600 µM) at fixed ATP (500 µM) and UM3DAP (100 µM), and finally, the concentration of ATP was varied (50, 100, 350, 500 µM) at fixed UM3DAP (100 µM) and D-Ala-D-Ala (600 µM). The concentrations of 21 were 0, 25, 50, 75, 100, 200, 350 and 500 µM and the concentration of the MurF was 20 nM. After a 15 min incubation, 100 µM Biomol green reagent® was added, and the absorbance was read at 650 nm after 5 min. All experiments were run in triplicate.
The data were analysed using the SigmaPlot 12.0 software. The initial velocities were fitted to competitive, non-competitive, uncompetitive and mixed enzyme inhibition. The Ki and mode of inhibition from the best ranking model were used, as provided by the software.

Oc1cc(O)c2c(c1)O[C@H](c1ccc(O)c(O)c1)[C@@H](O)[C@H]2O [Compound 20, Leucocyanidin]
remaining activity at 100 µM (E. coli MurD): 91 ± 9%
Solubility under the assay conditions (in words) [1]: poor solubility
IC50 (E. coli MurE; seven compound concentrations, 4-parameter Hill fit, three independent experiments): 164 ± 14 µM
remaining activity at 100 µM (E. coli MurC): 95 ± 8%
IC50 (E. coli MurF): 28 ± 8 µM
MIC (S. aureus (ATCC 29,213)): > 250 µM
MIC (E. coli (ATCC 25,922)): > 250 µM

Oc1cc(O)c2c(c1)O[C@H](c1ccc(O)c(O)c1)[C@H](O)C2 [Compound 21, (–)-epicatechin]
remaining activity at 100 µM (E. coli MurD): 94 ± 9%
remaining activity at 100 µM (E. coli MurE; 0.25 h, residual activity at 100 µM compound, mean ± SD of three independent experiments, read-out: RA (%) @ 100 µM MurE): 79 ± 8%
remaining activity at 100 µM (E. coli MurC): 92 ± 8%
IC50 (E. coli MurF): 92 ± 13 µM
MIC (S. aureus (ATCC 29,213)): > 250 µM
Inhibition of growth of S. aureus (in words) (S. aureus (ATCC 29,213)): inactive
MIC (E. coli (ATCC 25,922)): > 250 µM
Inhibition of growth of E. coli (in words) (E. coli (ATCC 25,922)): inactive
Ki (MurF from E. coli; substrate ATP varied, UM3DAP 100 µM, D-Ala-D-Ala 600 µM fixed): 28.5 ± 2.7 µM
Ki (MurF from E. coli; substrate D-Ala-D-Ala varied, ATP 500 µM, UM3DAP 100 µM fixed): 58.2 ± 5.1 µM
Ki (MurF from E. coli; substrate UM3DAP varied, ATP 500 µM, D-Ala-D-Ala 600 µM fixed): 70.1 ± 4 µM
Mechanism of inhibition (MurF from E. coli; with respect to ATP): mixed inhibition; also recorded: mixed inhibitor; also recorded: Mixed (partial)
α (mixed partial inhibition model) (MurF from E. coli; with respect to ATP): 1.5
β (mixed partial inhibition model) (MurF from E. coli; with respect to ATP): 0.4545
Mechanism of inhibition (MurF from E. coli; with respect to ATP, listed as (–)-epicatechin): mixed type inhibition
Mechanism of inhibition (MurF from E. coli; with respect to D-Ala-D-Ala): uncompetitive inhibitor; also recorded: Uncompetitive (partial)
Mechanism of inhibition (MurF from E. coli; with respect to D-Ala-D-Ala, listed as (–)-epicatechin): uncompetitive inhibition
Mechanism of inhibition (MurF from E. coli; with respect to UM3DAP): uncompetitive inhibitor; also recorded: Uncompetitive (partial)
Mechanism of inhibition (MurF from E. coli; with respect to UM3DAP, listed as (–)-epicatechin): uncompetitive inhibition
